Assay results as given in US20040198831A1, “Remedial agent for arthrosis deformans” (priority 2001, published 2004).

How the values were obtained:
[1] = system: model of OA in rabbits; conditions: reported in Inflamm Res 44, Suppl 2, S117-118 (1995); cited from earlier work
[2] = system: rat; test: toxicity, single oral administration to rat; assay type: in vivo; conditions: oral administration to rat once
Experimental: It was considered that the toxicities of the compounds represented by the formula (I) could be very low and safe to use as a medicine. For example, the lowest lethal dose in oral administration of compound (II) to rat once was 2000 mg/kg or more.

[3] = system: partial meniscectomy model in rabbits; test: partial meniscectomy model of osteoarthritis in rabbits (erosion area); assay type: in vivo, rabbit; conditions: female rabbits, 1, 3 and 10 mg/kg per day, administered twice a day, 7 days after operation, FIG. 1
Experimental: Efficiencies of the compounds in the present invention on osteoarthrosis were proven, for example, by an experiment of a partial meniscectomy model in rabbits.
Female rabbits (Kbs: NZW (Healthy)) were preliminarily bred for a week and subjected to ablative operation of meniscus by the following method.
Each animal was anesthetized by a subcutaneous injection of 2% parenteral celactal (0.05 ml/kg) to the poll and an intravenous injection of nembutal (20 mg/kg) to the marginal auricle. Their right knees were disinfected with Iodine tincture that dilutes five times with distilled water. If necessary, local anesthesia was performed by dropping 2% of parenteral xylocaine to incised part.
Then, skins and articular capsules outside knees of right hind legs were incised at right angle to patellar ligament, fibular collateral ligaments and sesamoid ligaments were transected. In that case, parenteral solution of bosmin was dropped for the arrest of hemorrhage. […]
After anesthesia by an intravenous injection of parenteral nembutal (40 mg/kg) to marginal auricle, the animals were made to die by venesection and gathered their right knees of joint part. […] After collecting all samples and masking them, their erosion areas were measured with a stereoscopic microscope. […]

SMILES | effect on a model of OA in rabbits [1] | lowest lethal dose [2] | inhibitory effect on erosion area of thigh bone [3]
COc1ccc(S(=O)(=O)N(Cc2cccnc2)[C@@H](C(=O)NO)C(C)C)cc1.Cl [CGS-27023A, 2(R)-[N-(4-methoxyphenylsulfonyl)-N-(3-pyridylmethyl)amino]-3-methylbutanohydroxamic acid hydrochloride] | could be effect | – | –
C[C@@H](C[C@@H](CO)NC(=O)c1ccc(Oc2ccccc2)cc1)C(=O)NO [compound (II), N-hydroxy-5-hydroxy-2(S)-methyl-4(S)-(4-phenoxybenzoyl)aminopentanamide] | – | ≥ 2000 mg/kg | inhibitory effect
